Test results reported in article PMC3877906, “Polypeptide Modulators of TRPV1 Produce Analgesia without Hyperthermia” (Marine Drugs, 2013).

Tests used:
CD-1 mice [1] = assay: core body temperature (rectal measuring); assay type: in vivo, mouse; conditions: for core body temperature, in words: rectal measuring, mice, vs saline
Experimental: Admittedly, hyperthermia is considered a critical side effect of TRPV1 antagonists, so we assessed the effect of the polypeptides on body temperature. Polypeptides were administered intravenously at doses 0.1 mg/kg and 0.5 mg/kg, and rectal temperature was monitored (Figure 5a,b).
(§1) All experiments were performed in accordance with the recommendations in the “Principles of Laboratory Animal Care” and after approval by the Animal Care and Use Committee of the Branch of the IBCh RAS (Pushchino, Russia). Adult male CD-1 mice (Animal Breeding Facility Branch of Shemyakin-Ovchinnikov Institute of Bioorganic Chemistry, Russian Academy of Sciences, Pushchino, Russia) weighing 20–25 g were used. Animals were allowed to acclimate in the laboratory for at least five days. Mice were housed at room temperature (23 ± 2 °C) on a 12 h light–dark cycle with food and water available ad libitum. Polypeptides or vehicle was administered intravenously 15 min before testing.
(§2) The significance of the data was determined by analysis of variance (ANOVA) followed by Tukey’s test. Data are presented as mean ± S.E.
The MLT1404 Rectal Temperature Probe and Chart Power Lab (ADInstruments Inc., Colorado Springs, CO, USA) was used to record body temperature. During recording, the animals were placed in a MLA5018 Rodent Restrainer (ADInstruments Inc., Colorado Springs, CO, USA). The adaptation period was 20 min. Core body temperature was recorded every minute for 20 min before and 100 min after test compound administration. AMG9810 was dissolved in DMSO and was injected intraperitoneally.

TRPV1 [2] = assay: Ca^2+ imaging, capsaicin responses of TRPV1-positive HEK-293 cells; assay type: cell-based, rat; conditions: 100 nM
Experimental: (§3) HEK-293 cells were cultured in Dulbecco’s modified Eagle’s medium (DMEM) (Life Technologies, Grand Island, NY, USA) containing 10% (vol/vol) fetal bovine serum (Thermo Fisher Scientific, Palm Beach, FL, USA), glutamine (1%) and the antibiotic gentamicin (100 μg/mL) (Life Technologies, Grand Island, NY, USA). The pIRES2-EGFP plasmid harboring rat TRPV1 cDNA was transiently transfected into HEK-293 cells by replacing the growth medium in each well with a transfection mixture, containing 1.6 μg of DNA and 4 μL of Lipofectamine (Life Technologies, Grand Island, NY, USA) in 1 mL of serum-free DMEM. After incubating for 6 h, the transfection mixture was replaced with normal culture medium. Cells were assayed within 48–96 h after transfection.
All recordings were performed at room temperature.

[3] = stated as background; cited from earlier work
Text: TRPV1 participates in thermoregulation, and almost all its known agonists and antagonists change core body temperature. […] The influence of antagonists on core body temperature is more complex. Antagonists that interact with the intracellular capsaicin-binding pocket of TRPV1 elicit a hyperthermic effect if they are able to inhibit pH-induced TRPV1 currents.

TRPV1 [4] = assay type: cell-based, rat
Experimental: Figure 2 Effects of APHC3 on recombinant TRPV1 expressed in HEK-293 cells. (a) Resting current recorded from a TRPV1-positive cell held at −30 mV. […] Straight lines above the recording indicate application of APHC3 (Long line) and capsaicin (Short lines). The cells were stimulated and rinsed by rapid switching of the bath solution between the control solution and solutions containing the indicated compound. (b) Capsaicin responses in control and in the presence of the 300 nM APHC3 peptide. In each case, the control response was calculated as an average of two acid responses recorded just prior to peptide application. Averaged responses recorded in the presence of APHC3 were normalized to averaged control responses. Those are presented as the mean ± s.d. (n = 4). […] (c, d) Cell responses to the acidification of the bath solution from pH 7.4 to pH 5.5 in control and in the presence of the APHC3 applied at different concentrations as indicated. The experimental traces in (c) and in (d, upper trace) illustrate representative responses of EGFP/TRPV1-positive cells. The bottom trace in (d) represents responses of an EGFP/TRPV1-negative cell assayed simultaneously. (e) Acid responses recorded in the presence of APHC3 (90, 160 and 240 nM) normalized to a control response. The data are presented as the mean ± s.d. (n = 5–10). […] In each case, the control response was calculated as an average of the two acid responses recorded just prior to peptide application. The average of the two acid responses recorded after peptide application was calculated and normalized to the control response. Experimental traces in (c, d) were obtained from three different cells. The changes in bath solution pH (continuous lines) and APHC3 applications (thick straight lines) are shown above the fluorescence traces. Cells were stimulated and rinsed by a rapid replacement of the control bath solution with modified bath solution at pH 5.5 with or without APHC3.
as §3
Ion currents were recorded using an Axopatch 200A amplifier, with a DigiData 1322A interface, and pClamp8 software (Molecular Devices, Downingtown, PA, USA). External solutions were delivered by a gravity-driven perfusion system at a rate of 0.1 mL/s. Generally, the whole-cell patch clamp approach was used with recording pipettes containing (mM): 140 CsCl, 1 MgATP, 10 BAPTA, 10 HEPES-CsOH (pH 7.2). The basic bath solution included the following (mM): 140 NaCl, 5 KCl, 1 MgCl2, 1 CaCl2, 10 HEPES-NaOH (pH 7.4).

CD-1 mice [5] = assay: hot plate test; assay type: in vivo, mouse; conditions: 0.1 and 1 mg/kg; 55 °C
Experimental: The hot plate test is a most simple for TRPV1 inhibitor characterization since TRPV1 play significant role in temperature sensation. Effect of APHC1 and APHC3 on thermal nociception at dose 0.1 mg/kg after intramuscular, intraperitoneal and intravenous administration was measured before. […] Here we assessed changes in thermal nociception to a noxious thermal stimuli elicited by different doses of APHC1 and APHC3 to determine minimal effective dose. […] Both polypeptides reached maximal effect at 0.1 mg/kg.
as §1, §2
Sensitivity to a thermal stimulus was determined by hind paw withdrawal or licking latency using a Hot-Plate Analgesia Meter (Columbus Instruments, Columbus, OH, USA) at 55 °C.

mice = conditions: ref [22],[23]; cited from earlier work
Text: (§4) Several polypeptide modulators of TRPV1 that interact with the extracellular part of the receptor have been reported. […] The structural homology of APHCs to these proteins is minimal so both polypeptides presented structural distinct class of TRPV1 inhibitors.

TRPV1 [6] = conditions: ref [22],[23]; cited from earlier work
Text: as §4

[7] = target: Transient receptor potential vanilloid 1 receptor (TRPV1) (rat) (UniProt O35433)
Chain of UniProt O35433 (O35433 whole entry): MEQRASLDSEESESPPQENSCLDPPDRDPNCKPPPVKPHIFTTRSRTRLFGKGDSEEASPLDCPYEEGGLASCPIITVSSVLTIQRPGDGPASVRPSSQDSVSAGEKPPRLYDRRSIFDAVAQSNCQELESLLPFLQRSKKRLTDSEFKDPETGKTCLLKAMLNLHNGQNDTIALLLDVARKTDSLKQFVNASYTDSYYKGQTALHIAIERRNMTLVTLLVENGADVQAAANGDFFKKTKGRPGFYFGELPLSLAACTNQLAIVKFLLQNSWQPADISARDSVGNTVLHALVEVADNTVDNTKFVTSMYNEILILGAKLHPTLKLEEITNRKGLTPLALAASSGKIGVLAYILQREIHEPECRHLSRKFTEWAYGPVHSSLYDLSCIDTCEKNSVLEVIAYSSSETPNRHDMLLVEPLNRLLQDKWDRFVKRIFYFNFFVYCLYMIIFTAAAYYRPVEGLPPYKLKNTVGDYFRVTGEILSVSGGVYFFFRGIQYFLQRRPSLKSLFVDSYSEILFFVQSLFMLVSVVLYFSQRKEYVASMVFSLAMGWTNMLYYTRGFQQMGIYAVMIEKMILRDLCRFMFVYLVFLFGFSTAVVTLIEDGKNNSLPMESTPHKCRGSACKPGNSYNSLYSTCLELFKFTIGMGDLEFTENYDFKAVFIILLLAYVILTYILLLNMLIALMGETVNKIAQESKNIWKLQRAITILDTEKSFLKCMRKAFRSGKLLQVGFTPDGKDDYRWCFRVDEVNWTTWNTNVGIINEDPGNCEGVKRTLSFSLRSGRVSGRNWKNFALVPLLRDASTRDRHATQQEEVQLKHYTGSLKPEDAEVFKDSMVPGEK

Molecule: CC(C)(C)c1ccc(/C=C/C(=O)Nc2ccc3c(c2)OCCO3)cc1 [AMG9810, reference compound]
- increase in body temperature (CD-1 mice [1]; 30 mg/kg i.p., vehicle 10% DMSO, significant, n = 7): 1.6 °C
- core body temperature, in words (CD-1 mice [1]): produced hyperthermic effect

Molecule: COc1cc(CNC(=O)CCCC/C=C/C(C)C)ccc1O [capsaicin]
- capsaicin-elicited Ca^2+ responses (TRPV1 [2]): elicited marked Ca^2+ responses
- body temperature [3]: significant decrease in body temperature
- capsaicin-elicited currents (TRPV1 [4]): elicited strong inward currents in all examined TRPV1-positive cells

Molecule: aprotinin [reference compound]
- increase in core body temperature (CD-1 mice [1]; 0.1 mg/kg, not statistically significant vs saline, n = 7): 0.4–0.5 °C
- core body temperature, in words (CD-1 mice [1]): did not change or modestly increase core body temperature
- behavioral response to thermal stimuli (CD-1 mice [5]): did not change behavioral response to thermal stimuli

B1: DkTx: spider's polypeptide that activates TRPV1 (protein, UniProt P0CH43 1-79, looked up)
Tau-theraphotoxin-Hs1a: DCAKEGEVCSWGKKCCDLDNFYCPMEFIPHCKKYKPYVPVTTNCAKEGEVCGWGSKCCHGLDCPLAFIPYCEKYRGRND
- pain response when injected in mice (mice): mediate the pain response
- effect on TRPV1 in vitro (TRPV1 [6]): activate TRPV1 in vitro

B2: APHC3 (peptide)
chain: GSICLEPKVVGPCTAYFPRFYFNSETGKCTPFIYGGCEGNGNNFETLRACRGICRA
- inhibition of capsaicin (100 nM)-induced inward currents by 300 nM APHC3, whole-cell patch clamp on TRPV1-positive HEK-293 cells (n = 4) [7]: 25%
